Laboratory results as given in patent US20250092383A1, “COMPOUNDS AND METHODS FOR FBXO22-MEDIATED PROTEIN DEGRADATION” (Northwestern University, priority 2023, published 2025).

What was measured:
Assay type in all cases: cell-based
[1] = target: T1, FKBP12 interactome (SKP1-CUL1-RBX1 E3 complex) (Homo sapiens, UniProt P62942+Q8NEZ5, C227A/C228A); assay: FKBP12-directed enrichment proteomic analysis; details: 22-SLF (2 μM) and MG132 (5 μM)
T1 construct: expressed in transfected cells; host or cells: HEK293T (FLAG-FKBP12 and HA-FBXO22 expressed; SKP1, CUL1 and RBX1 are the cells' own)
Text: (§1) FIGS. 4A-4C show 22-SLF induces the formation of a ternary complex involving 22-SLF, FKBP12 and FBXO22. […] The bar graph represents quantification of the immunoprecipitated HA-FBXO22 protein content compared to the HA-FBXO22 protein in whole cell lysates (WCL). Data are presented as the mean values (n=2 biological independent samples). […] Data are presented as the mean values (n=2 biological independent samples).
(§2) To comprehensively assess the impact of 22-SLF on the FKBP12 interactome landscape, an enrichment proteomic approach was employed to identify proteins co-immunoprecipitating with FLAG-FKBP12 from HEK293T cells treated with 22-SLF. […] Furthermore, another enrichment proteomic study was conducted comparing FKBP12 interactome landscape in HEK293T cells expressing FBXO22 wildtype and C227AC228A double mutant. […] Collectively, these findings indicate that 22-SLF effectively drives the formation of a ternary complex involving 22-SLF, FBXO22 and FKBP12 by engaging C227/228 in FBXO22, thereby facilitating the subsequent degradation of FKBP12.

[2] = target: T2, FKBP12 interactome (SKP1-CUL1-RBX1 E3 complex) (Homo sapiens, UniProt P62942+Q8NEZ5); assay: FKBP12-directed enrichment proteomic analysis; details: 22-SLF (2 μM) and MG132 (5 μM)
T2 construct: expressed in transfected cells; host or cells: HEK293T (FLAG-FKBP12 and HA-FBXO22 expressed; SKP1, CUL1 and RBX1 are the cells' own)
Text: as §1, §2

FKBP12 = FKBP12 (Homo sapiens, UniProt P62942); assay: MS-based global proteomic analysis in A549 parental and FBXO22 knockout cells (FKBP12); parameters: expressed in transfected cells; details: 2 μM, 24 hours
Experimental: The bar graph represents quantification of the FLAG-FKBP12/HSP90 protein content. Data are presented as the mean values±s.e.m. […] HEK293T cells expressing HA-FBXO22 were treated with 0.025-15 μM 22-SLF for 8 h. The graph represents quantification of the FLAG-FKBP12/HSP90 protein content. Data are presented as the mean values (n=2 biological independent samples). […] The bar graph represents quantification of the FLAG-FKBP12/HSP90 protein content. KO, knockout; WT, wild type. Data are presented as the mean values (n=2 biological independent samples). […] The bar graph represents quantification of the FLAG-FKBP12/HSP90 protein content. Data are presented as the mean values±s.e.m. […] The result is representative of two independent experiments with similar results. WCL, whole-cell lysate; IP, immunoprecipitate.
Data is obtained from Gene Expression Profiling Interactive Analysis (GEPIA). […] KDM4A and KDM4B are two reported substrates of FBXO22.
As an F-box protein, FBXO22 is a pivotal player in the context of tumor progression. FBXO22 has many oncogenic functions, including propelling the ubiquitination and subsequent degradation of a diverse spectrum of substrates, such as histone lysine demethylase 4 subfamily KDM4A/B, methylated p53, p21, PTEN, KLF4, and LKB1. […]

FKBP12-EGFP = target: T3, FKBP12-EGFP (Homo sapiens, UniProt P62942); assay: Fluorescence quantification of FKBP12-EGFP levels in HEK293T cells; details: HEK293T CRISPR activation cells with FBXO22-activating sgRNAs; 2 μM, 24 hours
T3 construct: expressed in transfected cells
Experimental: FIGS. 1A-1E show an E3 ligase focused CRISPR-Cas9 transcriptional activation screen identifies FBXO22 that supports 22-SLF-induced reduction in FKBP12-EGFP expression levels. FIG. 1A is a schematic representation of the steps in the CRISPR-Cas9 transcriptional activation screen. […] FIG. 1C is a volcano plot showing the E3 ligase focused CRISPR-Cas9 transcriptional activation screen for FKBP12-EGFP degradation after treatment of 2 μM 22-SLF in HEK293T CRISPR-Cas9 transcriptional activation cells for 24 hours. […] The statistical significance was evaluated through unpaired two-tailed Student's t-tests, comparing cells transduced with FBXO22 sgRNA to control sgRNA. Statistical significance denoted ****P<0.0001. […] The statistical significance was evaluated through unpaired two-tailed Student's t-tests, comparing cells treated with 22-SLF to DMSO. Statistical significance denoted as ***P<0.001 and ns: not significant.
FIGS. 6A-6E show generation of CRISPR-Cas9 transcriptional activation cells for the discovery of E3 ligases supporting the degradation of FKBP12-EGFP. […] The statistical significance was evaluated through unpaired two-tailed Student's t-tests, comparing cells treated with Len-SLF or SLF to DMSO. […] The statistical significance was evaluated through unpaired two-tailed Student's t-tests, comparing cells transduced with IL-1β sgRNA to control sgRNA. […]

T2 sequence (P62942 2-108): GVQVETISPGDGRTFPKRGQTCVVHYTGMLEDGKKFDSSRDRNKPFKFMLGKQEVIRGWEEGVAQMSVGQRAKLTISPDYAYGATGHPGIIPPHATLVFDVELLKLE
T2 sequence (Q8NEZ5 whole entry): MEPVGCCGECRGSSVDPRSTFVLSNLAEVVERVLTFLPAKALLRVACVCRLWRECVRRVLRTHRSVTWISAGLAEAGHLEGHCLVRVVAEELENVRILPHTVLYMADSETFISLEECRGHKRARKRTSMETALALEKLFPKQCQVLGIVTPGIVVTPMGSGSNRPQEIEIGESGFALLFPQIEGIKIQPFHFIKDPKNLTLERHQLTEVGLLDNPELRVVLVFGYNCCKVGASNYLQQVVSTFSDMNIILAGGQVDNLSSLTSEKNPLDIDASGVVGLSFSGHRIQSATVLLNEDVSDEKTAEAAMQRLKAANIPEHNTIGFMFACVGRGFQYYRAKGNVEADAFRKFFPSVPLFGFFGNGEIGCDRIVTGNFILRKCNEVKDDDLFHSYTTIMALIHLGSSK
T2 sequence (P63208 whole entry partner): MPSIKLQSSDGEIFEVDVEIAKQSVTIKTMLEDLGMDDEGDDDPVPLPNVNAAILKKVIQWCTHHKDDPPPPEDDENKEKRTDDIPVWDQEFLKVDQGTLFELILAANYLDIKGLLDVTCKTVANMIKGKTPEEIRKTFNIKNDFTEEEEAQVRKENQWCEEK
T1 sequence (P62942 2-108): as the sequence (P62942 2-108) above
T1 sequence (Q8NEZ5 whole entry C227A/C228A): as the sequence (Q8NEZ5 whole entry) above, with C227A, C228A counted along it
T1 sequence (P63208 whole entry partner): as the sequence (P63208 whole entry partner) above
FKBP12, sequence (P62942 whole entry): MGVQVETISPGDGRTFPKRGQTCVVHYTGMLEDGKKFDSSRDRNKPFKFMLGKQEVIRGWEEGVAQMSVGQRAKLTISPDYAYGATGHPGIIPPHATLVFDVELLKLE
T3 sequence (P62942 whole entry): as above

For `CCC(C)(C)C(=O)C(=O)N1CCCC[C@H]1C(=O)O[C@H](CCc1ccc(OC)c(OC)c1)c1cccc(OCC(=O)NCCCOCCOCCOCCCN(C(=O)CCl)C(C(=O)NCc2ccccc2)c2nc3ccccc3s2)c1` (some centres unmarked) [22-SLF], the “FBXO22 complex enrichment, FBXO22 C227AC228A-expressing cells” value [1] was “enrichment was absent”, the “FBXO22 complex enrichment, FBXO22 wildtype-expressing cells” value [2] was “enrichment of the FBXO22 complex” and the “Proteins co-immunoprecipitating with FLAG-FKBP12” value ([2]; HEK293T cells) was “FBXO22 itself, SKP1, CUL1, and NEDD8, as proteins recruited by 22-SLF”. The “Selectivity of FKBP12 degradation in global proteomics” value (FKBP12) was “selective degradation of endogenous FKBP12 in FBXO22 wildtype, but not knockout context” and the “FKBP12-EGFP expression in FBXO22-activated cells” value (FKBP12-EGFP) was “loss of FKBP12-EGFP expression”.
